Data taken from article PMC6934184, “Selective DNA-PKcs inhibition extends the therapeutic index of localized radiotherapy and chemotherapy” (The Journal of Clinical Investigation, 2019).

Molecular target: T1, AMPK (A1/B1/G2) (Homo sapiens, UniProt Q13131)
T1 construct: purchased Thermo Fisher Scientific (Life Technologies) SelectScreen
Test: SelectScreen LanthaScreen
Assay type: binding
Settings: read-out: % displacement
Summary of the method: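 Percent values come from Thermo SelectScreen profiling of NU5455, combining activity and binding assays. CSF1R was run in Z'LYTE format at Km app ATP, and CAMK1 in Adapta format with ATP listed at 10.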

T1 sequence (Q13131 whole entry): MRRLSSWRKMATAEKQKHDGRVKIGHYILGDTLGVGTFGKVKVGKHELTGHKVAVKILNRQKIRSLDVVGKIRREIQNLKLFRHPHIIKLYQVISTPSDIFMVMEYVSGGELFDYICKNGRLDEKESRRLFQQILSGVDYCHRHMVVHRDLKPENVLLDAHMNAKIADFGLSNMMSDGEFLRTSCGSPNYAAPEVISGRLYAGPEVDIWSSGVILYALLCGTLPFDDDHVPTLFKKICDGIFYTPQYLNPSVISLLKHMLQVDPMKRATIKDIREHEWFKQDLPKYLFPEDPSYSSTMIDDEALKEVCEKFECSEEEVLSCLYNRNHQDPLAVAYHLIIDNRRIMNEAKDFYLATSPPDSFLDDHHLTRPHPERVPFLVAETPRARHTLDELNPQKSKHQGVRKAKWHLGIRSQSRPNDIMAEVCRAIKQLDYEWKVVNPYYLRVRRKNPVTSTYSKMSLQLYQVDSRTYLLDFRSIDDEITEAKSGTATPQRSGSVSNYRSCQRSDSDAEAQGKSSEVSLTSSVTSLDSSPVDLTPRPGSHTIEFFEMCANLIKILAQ
T1 sequence (Q9Y478 whole entry partner): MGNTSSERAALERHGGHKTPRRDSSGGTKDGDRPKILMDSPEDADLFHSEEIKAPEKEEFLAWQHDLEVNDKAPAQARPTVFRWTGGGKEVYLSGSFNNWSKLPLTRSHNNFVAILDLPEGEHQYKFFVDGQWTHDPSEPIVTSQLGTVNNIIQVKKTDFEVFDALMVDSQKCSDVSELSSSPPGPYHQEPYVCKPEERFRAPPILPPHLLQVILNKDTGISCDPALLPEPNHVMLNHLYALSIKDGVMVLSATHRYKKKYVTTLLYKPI
T1 sequence (Q9UGJ0 whole entry partner): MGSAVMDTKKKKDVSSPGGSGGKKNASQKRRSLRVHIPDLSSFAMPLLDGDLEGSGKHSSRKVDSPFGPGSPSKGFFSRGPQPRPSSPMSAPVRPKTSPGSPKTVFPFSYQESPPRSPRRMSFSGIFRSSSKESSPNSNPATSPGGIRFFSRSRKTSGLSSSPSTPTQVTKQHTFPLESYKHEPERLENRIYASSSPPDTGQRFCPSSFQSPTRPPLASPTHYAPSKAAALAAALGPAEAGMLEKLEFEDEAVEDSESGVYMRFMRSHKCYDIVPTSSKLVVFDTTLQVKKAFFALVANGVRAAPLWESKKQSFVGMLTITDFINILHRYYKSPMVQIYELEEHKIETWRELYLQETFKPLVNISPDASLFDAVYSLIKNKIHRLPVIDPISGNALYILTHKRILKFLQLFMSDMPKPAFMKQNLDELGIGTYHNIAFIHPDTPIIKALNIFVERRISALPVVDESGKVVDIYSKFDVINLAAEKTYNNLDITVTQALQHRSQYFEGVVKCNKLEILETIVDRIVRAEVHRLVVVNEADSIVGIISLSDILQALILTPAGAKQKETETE

## CN(C(=O)CN1CCOCC1)c1ccc2sc3c(-c4cccc5c(=O)cc(N6CC7CCC(C6)O7)oc45)cccc3c2c1 [NU5455]
  inhibition at 1 µM: 2.4%
